Measured values reported in patent US20260337208A1, “HETEROCYCLIC DERIVATIVES AS JANUS KINASE INHIBITORS” (CHIESI FARMACEUTICI S.P.A., priority 2022, published 2026).
pIC50: −log10 of the molar value.

Key:
TYK2 = TYK2 (Homo sapiens, UniProt P29597); assay: Biochemical potency on Tyk2, TR-FRET (LANCE Ultra kinase assay); conditions: ATP corresponding to Km; cell-free; read-out: TYK2 inhibitory activity (pIC50) (converted)
Experimental: (§1) The objective of this study was to assess the capability of compounds to inhibit all 4 JAK isoforms activity in a cell-free environment. Assay for JAK 1, JAK 2, JAK 3 and TYK2 were performed by Time-resolved fluorescence resonance energy transfer (TR-FRET) technology. It consists in the interaction of two labelled binding partners detected by the energy transfer from an excited donor to an acceptor dye and measurement of light emission by the acceptor dye. LANCE Ultra kinase assay was used. In presence of JAK 1, JAK 2, JAK 3 and TYK2 kinases and ATP (corresponding to Km), the ULight peptide substrate (LANCE Ulight-JAK-1 (Tyr1023) Peptide, Perkin Elmer, TRF0121) is phosphorylated. It is then captured by Eu-anti-phospho-substrate antibody (LANCE Eu-W1024 Anti-phosphotyrosine (PT66), Perkin Elmer, AD0069), which bring the Eu-chelate donor and ULight acceptor dyes into close proximity. Upon excitation at 320 nm, the Eu-chelate transfers its energy to the ULight dye, resulting in a fluorescent light emission at 665 nm.
(§2) Serial dilutions of compounds in pure DMSO are prepared from 10 mM DMSO stock solutions. Compounds were tested in 384-well plate for 11 consecutive 5-fold dilutions starting from 20 μM highest concentration (20 μM-[…]). 200 nL of compound were transferred from mother plate to test plate by using Mosquito (TTP labtech). Assay was performed in 384-well Perkin Elmer test plate in 20 μL assay volume (kinase reaction) and 40 μL total volume (stopping reagent and antibody detection reagents). In 10 μL of substrate solution (peptide+ATP) 30/50/20/10 nM of peptide and 20/0.7/0.2/12 μM of ATP were added for JAK 1, JAK 2, JAK 3 and TYK2 respectively. 10 μL of enzyme solution was added to kinase reaction at these concentrations: 0.15/0.083/0.025/0.144 ng/μL of JAK 1, JAK 2, JAK 3 and TYK2 respectively. After shaking and 1.5 h of incubation at r.t., 20 μL of Stop (10 μL EDTA) and Detection mixture (10 μL Europium-anti-phospho antibody, final: 0.5 nM) were added. Reading was performed after 1 h of incubation on a En Vision 2104 reader (Perkin Elmer).
(§3) Calculation of IC50 data, curves and QC analysis was performed by using Excel tool and GraphPadPrism software, v9. Briefly, individual concentration-effect curves are generated by plotting the logarithm of the tested concentration of tested compounds (X) vs. corresponding percent inhibition values (Y) using least squares (ordinary) fit. Best fit IC50 values are calculated using Log (inhibitor) vs. normalized response—Variable slope equation, where Y=100/(1+10^((LogIC50−X)*HillSlope)). QC criteria parameters (Z′, S:B, R2, HillSlope) were checked for every IC50 curve. Calculation of IC50 data, curves and QC analysis were made using Excel tools and GraphPadPrism software. QC criteria parameters: Z′≥0.5, Hill Slope range 0.5 to 5, S:B>2.

JAK3 = biological target: T1, JAK3 (Homo sapiens, UniProt P52333); assay: Biochemical potency on JAK3, TR-FRET (LANCE Ultra kinase assay); conditions: ATP corresponding to Km; cell-free; read-out: JAK3 inhibitory activity (pIC50) (converted)
T1 sequence (P52333 1-1124): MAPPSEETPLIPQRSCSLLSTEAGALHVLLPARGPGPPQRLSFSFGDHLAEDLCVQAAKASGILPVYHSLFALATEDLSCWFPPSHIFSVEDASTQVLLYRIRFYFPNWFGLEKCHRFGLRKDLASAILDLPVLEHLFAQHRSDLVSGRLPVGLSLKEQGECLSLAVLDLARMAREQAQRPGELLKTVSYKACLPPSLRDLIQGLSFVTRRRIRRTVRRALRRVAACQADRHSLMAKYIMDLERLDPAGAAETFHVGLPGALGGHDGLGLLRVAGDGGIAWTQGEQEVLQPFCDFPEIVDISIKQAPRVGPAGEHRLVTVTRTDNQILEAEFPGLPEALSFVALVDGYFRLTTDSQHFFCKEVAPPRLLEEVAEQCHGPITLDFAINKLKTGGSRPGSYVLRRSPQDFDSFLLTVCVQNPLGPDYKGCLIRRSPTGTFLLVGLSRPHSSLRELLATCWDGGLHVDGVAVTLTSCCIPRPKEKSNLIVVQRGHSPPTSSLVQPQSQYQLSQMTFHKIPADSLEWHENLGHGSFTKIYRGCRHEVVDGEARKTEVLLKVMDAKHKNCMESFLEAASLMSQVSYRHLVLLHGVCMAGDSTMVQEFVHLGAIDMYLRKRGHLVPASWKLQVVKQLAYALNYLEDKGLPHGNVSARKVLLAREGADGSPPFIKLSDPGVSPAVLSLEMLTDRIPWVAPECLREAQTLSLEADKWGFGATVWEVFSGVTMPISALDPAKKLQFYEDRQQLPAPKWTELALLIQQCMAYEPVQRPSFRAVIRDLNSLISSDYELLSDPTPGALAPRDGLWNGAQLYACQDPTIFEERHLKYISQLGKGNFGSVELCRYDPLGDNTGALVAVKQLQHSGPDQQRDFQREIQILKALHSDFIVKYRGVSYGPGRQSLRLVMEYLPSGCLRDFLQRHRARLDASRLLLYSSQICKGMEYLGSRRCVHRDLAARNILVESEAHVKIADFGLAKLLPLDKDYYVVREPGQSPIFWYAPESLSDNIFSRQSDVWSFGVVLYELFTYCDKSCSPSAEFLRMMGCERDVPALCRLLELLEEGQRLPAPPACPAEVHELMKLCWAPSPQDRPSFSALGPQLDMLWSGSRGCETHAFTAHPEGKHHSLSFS
Experimental: as §1, §2, §3

JAK1 = JAK1 (Homo sapiens, UniProt P23458); assay: Biochemical potency on JAK1, TR-FRET (LANCE Ultra kinase assay); conditions: ATP corresponding to Km; cell-free; read-out: JAK1 inhibitory activity (pIC50) (converted)
Chain of JAK1 (P23458 whole entry): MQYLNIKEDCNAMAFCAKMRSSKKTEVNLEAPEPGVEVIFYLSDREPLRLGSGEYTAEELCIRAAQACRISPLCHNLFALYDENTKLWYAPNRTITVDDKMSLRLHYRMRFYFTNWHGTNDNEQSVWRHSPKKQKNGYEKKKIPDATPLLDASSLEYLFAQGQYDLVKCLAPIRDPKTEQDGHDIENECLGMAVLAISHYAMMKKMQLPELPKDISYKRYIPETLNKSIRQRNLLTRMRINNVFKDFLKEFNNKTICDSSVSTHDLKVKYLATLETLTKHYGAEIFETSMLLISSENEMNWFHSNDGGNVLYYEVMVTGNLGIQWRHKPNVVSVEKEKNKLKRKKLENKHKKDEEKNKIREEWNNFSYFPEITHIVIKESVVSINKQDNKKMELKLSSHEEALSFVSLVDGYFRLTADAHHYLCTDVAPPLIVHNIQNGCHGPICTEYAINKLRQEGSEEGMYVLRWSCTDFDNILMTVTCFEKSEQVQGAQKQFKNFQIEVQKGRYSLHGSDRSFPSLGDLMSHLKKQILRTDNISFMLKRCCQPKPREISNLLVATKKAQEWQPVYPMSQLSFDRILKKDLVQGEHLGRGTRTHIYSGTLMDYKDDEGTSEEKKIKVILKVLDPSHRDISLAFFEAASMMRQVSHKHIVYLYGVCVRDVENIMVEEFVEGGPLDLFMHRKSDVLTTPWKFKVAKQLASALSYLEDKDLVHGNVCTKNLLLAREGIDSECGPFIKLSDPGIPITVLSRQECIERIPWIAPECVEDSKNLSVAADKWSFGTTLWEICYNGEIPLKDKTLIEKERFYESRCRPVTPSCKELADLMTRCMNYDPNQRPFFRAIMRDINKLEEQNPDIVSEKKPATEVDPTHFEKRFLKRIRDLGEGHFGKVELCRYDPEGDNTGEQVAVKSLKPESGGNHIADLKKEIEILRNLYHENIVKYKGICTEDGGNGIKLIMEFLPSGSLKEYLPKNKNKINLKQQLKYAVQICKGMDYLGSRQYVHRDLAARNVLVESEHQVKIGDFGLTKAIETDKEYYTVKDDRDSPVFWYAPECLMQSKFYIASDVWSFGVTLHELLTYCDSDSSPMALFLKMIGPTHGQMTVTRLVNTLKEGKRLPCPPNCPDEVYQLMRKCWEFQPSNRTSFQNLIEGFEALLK
Experimental: as §1, §2, §3

[1] = system: pSTAT6 in BEAS-2B human cell line; assay: Inhibition of IL-13 induced pSTAT6 in BEAS; assay type: cell-based; conditions: for pIC50: Homo sapiens, BEAS-2B, 0.5 h, IL-13 trigger, 30 min, parent compound; for Fold difference parent vs predicted acid metabolite: ratio=IC50 predicted acid metabolite/IC50 ester
Experimental: BEAS-2B human cell line was seeded (100.000 cells/well) and incubated for 48 h at 37° C., 5% CO2, 95% humidity. Compounds were added and incubated 30 min followed by IL-13 as trigger. After 30 min incubation, cells were lysed and pSTAT6 determined by Fastscan phospho-stat6 (Tyr641) sandwich ELISA kit (cell signaling). Inhibitors were tested at 11 consecutive 5-fold dilutions starting from 10 μM (10 μM-[…]) in duplicate. Calculation of IC50 data, curves and QC analysis were made using Excel tools and GraphPadPrism software. QC criteria parameters: Z′≥0.35, Hill Slope range 0.5 to 5, S:B>2.

JAK2 = JAK2 (Homo sapiens, UniProt O60674); assay: Biochemical potency on JAK2, TR-FRET (LANCE Ultra kinase assay); conditions: ATP corresponding to Km; cell-free; read-out: JAK2 inhibitory activity (pIC50) (converted)
Chain of JAK2 (O60674 whole entry): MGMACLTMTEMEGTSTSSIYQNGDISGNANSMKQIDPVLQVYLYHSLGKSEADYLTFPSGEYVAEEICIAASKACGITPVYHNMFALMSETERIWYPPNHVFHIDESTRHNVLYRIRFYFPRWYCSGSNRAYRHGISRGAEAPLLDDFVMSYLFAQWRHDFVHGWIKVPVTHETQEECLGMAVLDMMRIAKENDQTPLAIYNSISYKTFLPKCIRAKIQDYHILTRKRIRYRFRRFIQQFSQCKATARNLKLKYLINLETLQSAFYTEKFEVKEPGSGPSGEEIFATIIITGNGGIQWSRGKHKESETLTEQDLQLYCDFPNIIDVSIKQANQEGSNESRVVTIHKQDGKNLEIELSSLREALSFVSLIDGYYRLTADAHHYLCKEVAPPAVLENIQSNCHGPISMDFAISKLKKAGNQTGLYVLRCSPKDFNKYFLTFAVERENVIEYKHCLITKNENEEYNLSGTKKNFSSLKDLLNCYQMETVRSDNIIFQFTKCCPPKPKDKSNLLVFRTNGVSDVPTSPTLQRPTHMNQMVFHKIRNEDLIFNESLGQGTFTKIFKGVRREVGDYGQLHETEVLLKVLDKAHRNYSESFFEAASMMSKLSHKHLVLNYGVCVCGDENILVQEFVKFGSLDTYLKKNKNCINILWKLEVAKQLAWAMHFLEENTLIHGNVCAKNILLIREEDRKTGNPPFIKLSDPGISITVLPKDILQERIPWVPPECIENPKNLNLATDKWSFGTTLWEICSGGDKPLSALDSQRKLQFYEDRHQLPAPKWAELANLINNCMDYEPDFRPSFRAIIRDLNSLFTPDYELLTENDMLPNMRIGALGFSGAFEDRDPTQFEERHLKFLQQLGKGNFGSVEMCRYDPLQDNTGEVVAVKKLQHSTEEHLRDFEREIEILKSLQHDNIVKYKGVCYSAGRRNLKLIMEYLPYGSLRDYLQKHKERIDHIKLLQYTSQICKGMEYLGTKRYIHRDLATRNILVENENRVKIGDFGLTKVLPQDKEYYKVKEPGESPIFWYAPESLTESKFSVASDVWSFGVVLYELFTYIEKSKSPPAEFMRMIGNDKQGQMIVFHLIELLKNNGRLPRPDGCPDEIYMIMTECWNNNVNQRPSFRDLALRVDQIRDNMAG
Experimental: as §1, §2, §3

Chain of TYK2 (P29597 whole entry, canonical isoform): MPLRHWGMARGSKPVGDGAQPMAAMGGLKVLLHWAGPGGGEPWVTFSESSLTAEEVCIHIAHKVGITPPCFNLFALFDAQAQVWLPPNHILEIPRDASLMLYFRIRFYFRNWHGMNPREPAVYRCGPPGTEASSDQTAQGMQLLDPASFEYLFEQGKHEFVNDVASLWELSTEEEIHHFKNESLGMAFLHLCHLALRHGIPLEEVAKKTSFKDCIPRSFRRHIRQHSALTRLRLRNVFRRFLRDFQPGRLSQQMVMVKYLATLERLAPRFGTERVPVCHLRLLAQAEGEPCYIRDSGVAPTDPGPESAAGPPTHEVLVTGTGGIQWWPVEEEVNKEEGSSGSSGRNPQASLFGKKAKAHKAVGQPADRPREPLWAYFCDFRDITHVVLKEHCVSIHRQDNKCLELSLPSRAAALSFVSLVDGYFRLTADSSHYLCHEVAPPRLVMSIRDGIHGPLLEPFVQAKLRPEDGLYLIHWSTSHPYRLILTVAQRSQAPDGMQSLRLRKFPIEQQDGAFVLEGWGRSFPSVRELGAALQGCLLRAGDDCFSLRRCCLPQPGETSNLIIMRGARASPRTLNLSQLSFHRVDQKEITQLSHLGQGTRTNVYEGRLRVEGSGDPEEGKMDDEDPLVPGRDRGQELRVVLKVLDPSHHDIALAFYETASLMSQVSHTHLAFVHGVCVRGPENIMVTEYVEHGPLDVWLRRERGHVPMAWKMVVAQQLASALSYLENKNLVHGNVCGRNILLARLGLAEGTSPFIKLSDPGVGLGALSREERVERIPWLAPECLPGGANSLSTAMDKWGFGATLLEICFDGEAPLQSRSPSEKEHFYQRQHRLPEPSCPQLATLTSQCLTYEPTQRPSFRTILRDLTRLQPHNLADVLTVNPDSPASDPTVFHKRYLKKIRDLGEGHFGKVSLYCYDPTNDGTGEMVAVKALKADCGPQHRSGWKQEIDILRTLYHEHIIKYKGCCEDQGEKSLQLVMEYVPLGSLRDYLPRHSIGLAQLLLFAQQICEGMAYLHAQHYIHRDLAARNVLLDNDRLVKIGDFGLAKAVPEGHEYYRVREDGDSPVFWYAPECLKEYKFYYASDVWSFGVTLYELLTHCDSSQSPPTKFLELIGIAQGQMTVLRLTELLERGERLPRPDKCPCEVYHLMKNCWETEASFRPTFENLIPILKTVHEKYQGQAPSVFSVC

IC50 (TYK2)	IC50 (JAK3)	IC50 (JAK1)	IC50 (JAK2)	Structure (SMILES)	pIC50 [1]	Fold difference parent vs predicted acid metabolite [1]
5.01 to 50.1 nM	≤ 5.01 nM	≤ 5.01 nM	≤ 5.01 nM	CCOC(=O)COC(=O)Nc1nn(-c2cc3c(cc2OC)NCCS3)c2cc(-c3cnn4cccnc34)ncc12 [Example 3, ethyl 2-(((1-(6-methoxy-3,4-dihydro-2H-benzo[b][1,4]thiazin-7-yl)-6-(pyrazolo[1,5-a]pyrimidin-3-yl)-1H-pyrazolo[4,3-c]pyridin-3-yl)carbamoyl)oxy)acetate]	≥ 8.30	kkkk (ratio≥200)
≤ 5.01 nM	≤ 5.01 nM	≤ 5.01 nM	≤ 5.01 nM	CCOC(=O)C1CCN(CCOC(=O)Nc2nn(-c3cc4c(cc3OC)NCCS4)c3cc(-c4cnn5cccnc45)ncc23)CC1 [Example 4, ethyl 1-(2-(((1-(6-methoxy-3,4-dihydro-2H-benzo[b][1,4]thiazin-7-yl)-6-(pyrazolo[1,5-a]pyrimidin-3-yl)-1H-pyrazolo[4,3-c]pyridin-3-yl)carbamoyl)oxy)ethyl)piperidine-4-carboxylate]	≥ 8.30	kk (100>ratio≥10)
5.01 to 50.1 nM	≤ 5.01 nM	≤ 5.01 nM	≤ 5.01 nM	COCC(C)(C)OC(=O)C1CCN(CCNC(=O)c2nn(-c3cc4c(cc3OC)NCCO4)c3cc(-c4cnn5cccnc45)ncc23)CC1 [Example 5, 1-methoxy-2-methylpropan-2-yl 1-(2-(1-(6-methoxy-3,4-dihydro-2H-benzo[b][1,4]oxazin-7-yl)-6-(pyrazolo[1,5-a]pyrimidin-3-yl)-1H-pyrazolo[4,3-c]pyridine-3-carboxamido)ethyl)piperidine-4-carboxylate]	≥ 8.30	kkkk (ratio≥200)
> 50.1 nM	≤ 5.01 nM	5.01 to 50.1 nM	≤ 5.01 nM	CCCOC(=O)CN(C)CCNC(=O)c1nn(-c2cc3c(cc2OC)NCCO3)c2cc(-c3cnn4cccnc34)ncc12 [Example 6, propyl N-(2-(1-(6-methoxy-3,4-dihydro-2H-benzo[b][1,4]oxazin-7-yl)-6-(pyrazolo[1,5-a]pyrimidin-3-yl)-1H-pyrazolo[4,3-c]pyridine-3-carboxamido)ethyl)-N-methylglycinate]	7.30 to 8.30	
≤ 5.01 nM	≤ 5.01 nM	≤ 5.01 nM	≤ 5.01 nM	COc1cc2c(cc1-n1nc(C(=O)OCCCN(C)C)c3cnc(-c4cnn5cccnc45)cc31)SCCN2 [Example 7, 3-(dimethylamino)propyl 1-(6-methoxy-3,4-dihydro-2H-benzo[b][1,4]thiazin-7-yl)-6-(pyrazolo[1,5-a]pyrimidin-3-yl)-1H-pyrazolo[4,3-c]pyridine-3-carboxylate]	≥ 8.30	
≤ 5.01 nM	≤ 5.01 nM	≤ 5.01 nM	≤ 5.01 nM	COc1cc2c(cc1-n1nc(C(=O)OCCCN3CCN(C)CC3)c3cnc(-c4cnn5cccnc45)cc31)SCCN2 [Example 8, 3-(4-methylpiperazin-1-yl)propyl 1-(6-methoxy-3,4-dihydro-2H-benzo[b][1,4]thiazin-7-yl)-6-(pyrazolo[1,5-a]pyrimidin-3-yl)-1H-pyrazolo[4,3-c]pyridine-3-carboxylate]	7.30 to 8.30	
5.01 to 50.1 nM	≤ 5.01 nM	≤ 5.01 nM	≤ 5.01 nM	CCOC(=O)C1CCN(CCNC(=O)c2nn(-c3cc4c(cc3OC)NCCO4)c3cc(-c4cnn5cccnc45)ncc23)CC1 [Example 9, ethyl 1-(2-(1-(6-methoxy-3,4-dihydro-2H-benzo[b][1,4]oxazin-7-yl)-6-(pyrazolo[1,5-a]pyrimidin-3-yl)-1H-pyrazolo[4,3-c]pyridine-3-carboxamido)ethyl)piperidine-4-carboxylate]	≥ 8.30	kkkk (ratio≥200)
5.01 to 50.1 nM	≤ 5.01 nM	≤ 5.01 nM	≤ 5.01 nM	CCC(C)OC(=O)C1CCN(CCNC(=O)c2nn(-c3cc4c(cc3OC)NCCO4)c3cc(-c4cnn5cccnc45)ncc23)CC1 (stereo not drawn) [Example 10, sec-butyl 1-(2-(1-(6-methoxy-3,4-dihydro-2H-benzo[b][1,4]oxazin-7-yl)-6-(pyrazolo[1,5-a]pyrimidin-3-yl)-1H-pyrazolo[4,3-c]pyridine-3-carboxamido)ethyl)piperidine-4-carboxylate]	≥ 8.30	kkkk (ratio≥200)
5.01 to 50.1 nM	≤ 5.01 nM	≤ 5.01 nM	≤ 5.01 nM	COc1cc2c(cc1-n1nc(C(=O)NCCN3CCC(C(=O)OC4CC4)CC3)c3cnc(-c4cnn5cccnc45)cc31)OCCN2 [Example 11, cyclopropyl 1-(2-(1-(6-methoxy-3,4-dihydro-2H-benzo[b][1,4]oxazin-7-yl)-6-(pyrazolo[1,5-a]pyrimidin-3-yl)-1H-pyrazolo[4,3-c]pyridine-3-carboxamido)ethyl)piperidine-4-carboxylate]	≥ 8.30	kkkk (ratio≥200)
